Reference: patent US6828318B2 (priority 2000, dated 2004)
Where a name gives a salt, the structure may show the parent alone.

Key:
[1] = target: PCP site of the NMDA receptor; assay: NMDA receptor binding: displacement of [3H]-MK-801 from rat cortical homogenates; conditions: rat cortical membranes, 5 nM [3H]-MK-801, 10 μM glutamate, 10 μM glycine; read-out: IC50, potency to displace [3H]-MK-801 from rat cortical homogenates
Text: The NMDA receptor contains several distinct binding domains that can regulate opening of the cationic channel. The phencyclidine (PCP) site of the NMDA receptor can be radiolabeled with [^3H]-(+)-5-methyl-10,11-dihydro-5H-dibenzo[a,d]cyclohepten-5,10-imine hydrogen maleate, [^3H-MK-801]. The following describes the procedure for determining the affinity of compounds for the PCP site in rat cortical membranes.
Frozen rat cortex, homogenized in 10 volumes of ice-cold 0.32-M sucrose is centrifuged at 1,000 g for 12 min and the supernatant stored on ice whilst the pellet is resuspended, rehomogenized and recentrifuged twice more. The three final supernatants are pooled and centrifuged at 30,000 g for 40 min at 4° C. to yield P2 pellets. These are resuspended in ice-cold distilled water, and centrifuged at 30,000 g for 50 min at 4° C. Following three further washes in distilled water, the P2 pellets are stored at −20° C. for at least 18 h. On the day of the assay, membrane pellets are thawed at room temperature, resuspended in ice-cold distilled water and centrifuged at 30,000 g for 20 min. The pellets are resuspended in 50-mM tris-HCl (pH:7.4) and recentrifuged twice more before being resuspended in tris-HCl for immediate use in the assay. Binding assays are performed at equilibrium in a total volume of 200 μL, containing [^3H]-MK-801 (5-nM final conc.), 10-μM glutamate, 10-μM glycine, 160 μL of membrane preparation and additional drugs where appropriate. Non-specific binding is determined using MK-801 (10-μM). The assay is incubated for 120 min at room temperature. The incubation is terminated by rapid filtration through Whatman GF/B filters (pre-soaked in 0.1% PEI solution). The assay tubes and filters are washed five times with 1 mL of ice-cold assay buffer. The filters are placed in poly-Q mini vials with approximately 5 mL of scintillation fluid. The vials are then shaken and left for at least 8 h before being counted on a liquid scintillation counter. To determine the free ligand concentration 3 aliquots (20 μL) of the [^3H]-MK-801 working solution are also counted. Concentration response data for drugs is analysed using a 4 parameter equation fitted by non-linear regression. This yields the half maximally effective drug concentration (IC50) and Hill coefficient.

[2] = test system: male Sprague Dawley rats; assay: Assessment of side-effect liability (PCP syndrome), behavioural rating; type: in vivo, rat
Experimental: Side effect liability was assessed by utilising a standardised […] rating of behaviours recognised to be elicited by prototypical psychotomimetic NMDA receptor channel blockers such as phencyclidine and aptiganel (Cerestat™), similar to those reported by Martin et al., Life Sci 1979 24:1699-1703. Groups of eight male Sprague Dawley rats weighing 250-280 g. were placed in Plexiglass chambers and administered test compounds. After 20 minutes the percentage of rats in each group showing the behaviours noted in Table 2 was rated.
Ratings were plotted on ethograms to illustrate the profile of effect of each test compound.

[3] = test system: male Sprague Dawley rats; assay: Assessment of analgesia: sub-plantar formalin injection into the rat hind paw; type: in vivo; conditions: rat formalin test, second phase t=5 to t=30 min, drug 20 min before formalin
Experimental: Analgesia testing was performed in male Sprague Dawley rats weighing 200-250 g. Drugs were administered 20 minutes prior to a sub-plantar injection of formalin into the right hind paw. The characteristic nociceptive behavioural responses elicited by this injection were rated on a scale from “0”=no effect through to “3”=effect of maximal intensity. As with side effect ratings, all observations were made blind to treatment condition. Ratings of nociception related behaviours were made in two time periods, one from the time of injection for a further five minutes (t=0 to t=5 min), and a second from t=5 min to t=30 min. The response to formalin injection in this model is biphasic, the first phase occurring during the first five minutes consists of a primary inflammation related response. The second phase, occurring over the subsequent 30 minutes is a delayed phase in which the phenomenon of “wind up” or neurally mediated hyperalgesia, is thought to occur. It is the second phase of response that has relevance to sciatica, diabetic neuropathy and other neuropathic chronic pain states. Responses to test compounds were assessed during this second phase from t=5 min to t=30 min. Data were analysed by means of Median tests followed by post hoc Bonferroni corrected Mann-Whitney U-tests.

In the case of `Cc1ccc(C2(CC(C)N)C3CC4CC(C3)CC2C4)cc1` (centres unmarked) (as salt: hydrochloride), the melting point is reported as 344 to 346 °C.

In the case of `NCCC1(c2ccccc2)C2CC3CC(C2)CC1C3` (centres unmarked) [Example 1, 2-[2-(2-Phenyl)adamantyl]ethylamine hydrochloride], the IC50 [1] is reported as 1.09 ± 0.4 µM, the “Elicitation of PCP syndrome (PCP related behaviours)” value (“Elicitation of PCP syndrome” for short) ([2]; rats, intraperitoneal, twenty minutes prior to test, groups of n=8, hydrochloride) is reported as “no tendency to elicit “PCP syndrome.”” and the “Minimum effective dose on nociception related behaviours” value (from here on “Minimum effective dose”) [3] is reported as 20 mg/kg.

In the case of `CNC1(c2ccccc2Cl)CCCCC1=O` (centres unmarked) [Ketamine, reference compound], the IC50 [1] is reported as 6.51 ± 4.54 µM, the “Elicitation of PCP syndrome” value ([2]; rats, intraperitoneal, twenty minutes prior to test, groups of n=8) is reported as “produces “PCP syndrome”” and the “Minimum effective dose” value [3] is reported as 20 mg/kg.

In the case of `NCCC1(c2ccccc2)C2CC3CC(C2)CC1C3` (centres unmarked) (as salt: hydrochloride) [Example 1, 2-[2-(2-Phenyl)adamantyl]ethylamine hydrochloride], the melting point is reported as 278 to 281 °C (dec.).

Compound `NCCC1(c2cccs2)C2CC3CC(C2)CC1C3` (centres unmarked) (as salt: hydrochloride) [Example 2, 2-[2-[2-(2-Thienyl)]adamantyl]ethylamine hydrochloride] has a melting point of 250.6 to 251.9 °C.

With `CC12CC3CC(C)(C1)CC(N)(C3)C2` [Memantine, reference compound] the IC50 [1] was 6.5 ± 0.94 µM, the “Elicitation of PCP syndrome” value ([2]; rat, in vivo, ip) was “elicits “PCP syndrome”” and the “Minimum effective dose” value [3] was 10 mg/kg.

In the case of `NCCC1(c2cccs2)C2CC3CC(C2)CC1C3` (centres unmarked) [Example 2, 2-[2-[2-(2-Thienyl)]adamantyl]ethylamine hydrochloride], the IC50 [1] is reported as 2.7 ± 0.54 µM.

With `NCCC1(Cc2ccccc2)C2CC3CC(C2)CC1C3` (centres unmarked) (as salt: hydrochloride) the melting point was 195.8 to 196.8 °C.
